Test results from patent publication US5968910A, “Compositions containing two or three inhibitors of different HIV reverse transcriptases” (priority 1994, dated 1999).
Values after ≈ are worked out from the molar mass of the structure shown. Like-named read-outs stand apart in the source and are kept apart here.

Legend:
[1] = tested on: HIV-1/TIBO R82150 (100-Ile); details: background, Balzarini I/II; cited from earlier work
HIV-1(IIIB) (WT) = assay: microbe, parasite or virus in culture; type: cell-based; details: Human immunodeficiency virus 1, IIIB, CCRF-CEM
Method: (§1) CEM cells were suspended at 250,000 cells per ml of culture medium and infected with wild-type HIV-I(IIIB) or mutant HIV-1 strains at 100 50% cell culture infective doses per ml. Then 100 μl of the infected cell suspensions was added to 200-μl microtiter plate wells containing 100 μl of an appropriate dilution of the test compounds. After 4 days incubation at 37° C., the cell cultures were examined for syncytium formation.

HIV-1/B 101Glu = assay: Sensitivity of mutant HIV-1 strain in CEM cell cultures; type: cell-based; details: Table 5
Method: as §1

HIV-1/I(0.1) 103-Asn = assay: as above; type: cell-based; details: Table 5
Method: as §1

HIV-1/II(0.1) 100-Ile = assay: as above; type: cell-based; details: Table 5
Method: as §1

HIV-1/III(0.1) 103-Asn = assay: as above; type: cell-based; details: Table 5
Method: as §1

HIV-1/IV(0.1) 103-Thr = assay: as above; type: cell-based; details: Table 5
Method: as §1

HIV-1/Nev (106-Ala) = assay: as above; type: cell-based; details: CEM cells, Table 1
Method: as §1

HIV-1/Pyr (181-Cys) = assay: as above; type: cell-based; details: CEM cells, Table 1
Method: as §1

[2] = tested on: HIV-1/TIBO R82150 (100-Ile); assay: as above; type: cell-based; details: CEM cells, Table 1
Method: as §1

[3] = tested on: HIV-1/TIBO R82913 (103-Asn); assay: as above; type: cell-based; details: CEM cells, Table 1
Method: as §1

[4] = tested on: HIV-1/TSAO-m^3 T (138-Lys); assay: as above; type: cell-based; details: CEM cells, Table 1
Method: as §1

[5] = tested on: HIV-1/V(0.1) 101-Ile + 141-Glu; assay: as above; type: cell-based; details: Table 5
Method: as §1

HIV-1/V(0.5) 103-Asn = assay: as above; type: cell-based; details: Table 5
Method: as §1

HIV-1(IIIB) = assay: Knock-out concentrations: breakthrough of HIV-1(IIIB)-induced cytopathicity in CEM cell cultures; type: cell-based
Method: The culture medium consisted of RPMI 1640 containing 10% fetal bovine serum, 2 mM L-glutamine, and 0.075% NaHCO3. The multiplicity of the initial infection was ~1000 times the CCID50 (50% cell culture infective dose). Passages were performed every 3 to 4 days by adding 0.5 to 1.0 ml of the infected culture supernatant to 5 ml of a suspension containing 4×10^5 uninfected CEM cells per ml. Syncytium formation was used as a parameter of virus breakthrough in the cell cultures. In the drug combination experiments, the compounds were combined at the same initial concentrations as used for the two lowest concentrations in the single-drug experiments.
The drug concentrations were kept constant throughout the whole time period of the experiment (10 subcultivations or 35 days). Then the drugs were removed from the cell cultures, and the cells were further subcultured for at least 5 additional passages.

HIV-1 RT (WT) = HIV-1 RT (WT) (Human immunodeficiency virus type 1 group M subtype B, UniProt P03366); assay: biochemical; details: IC50, anti-HIV-1 RT (WT) activity
Method: The reaction mixture (50 μl) contained 50 mM Tris.HCl, pH 7.8, 5 mM dithiothreitol, […] glutathione, 500 μM EDTA, 150 mM KCl, 5 mM MgCl2, 1.25 μg of bovine serum albumin, a fixed concentration of the labeled substrate [2,8-^3 H]dGTP (2.95 μM, 2 μCi), a fixed concentration of the template/primer poly(C).oligo(dG) (0.1 mM), 0.06% Triton X-100, 5 μl of inhibitor solution [containing various concentrations (5-fold dilutions) of the test compounds], and 5 μl of the RT preparation. The reaction mixtures were incubated at 37° C. for 30 min, at which time 100 μl of calf thymus DNA (150 μg/ml), 2 ml of Na4 P2 07 (0.1 M in 1M HCl), and 2 ml of trichloroacetic acid (10%, v/v) were added. The solutions were kept on ice for 30 min, after which the acid-insoluble material was washed and analyzed for radioactivity.
Compounds I, III, IV and V were evaluated for their inhibitory effect on recombinant HIV-1 RT.

[6] = CEM cells, Table 1, read-out: 50% Effective Concentration
[7] = HIV-1 (III8), Table 5, read-out: EC50
[8] = Human immunodeficiency virus 1, CCRF-CEM, read-out: EC50
[9] = Human immunodeficiency virus 1, CCRF-CEM, read-out: 50% Effective Concentration

SMILES: CC(C)=CCN1Cc2cccc3[nH]c(=S)n(c23)C[C@@H]1C [Compound R82150]
- resistance of HIV-1 strains containing the 100 Leu→Ile mutation in their RT [1]: resistant

SMILES: Cc1ccnc2c1NC(=O)c1cccnc1N2C1CC1 [Nevirapine, reference compound]
- EC50 (HIV-1(IIIB) (WT); [6]): 0.007 µg/mL (≈ 0.0263 µM)
- EC50 (HIV-1(IIIB) (WT); [7]): 0.007 µg/mL (≈ 0.0263 µM)
- EC50 (HIV-1/B 101Glu): > 2.5 µg/mL
- EC50 (HIV-1/I(0.1) 103-Asn): 1.7 µg/mL (≈ 6.38 µM)
- EC50 (HIV-1/II(0.1) 100-Ile): ≥ 5 µg/mL
- EC50 (HIV-1/III(0.1) 103-Asn): 0.38 µg/mL (≈ 1.43 µM)
- EC50 (HIV-1/IV(0.1) 103-Thr): 2.7 µg/mL (≈ 10.1 µM)
- 50% Effective Concentration (HIV-1/Nev (106-Ala)): 2.3 µg/mL
- 50% Effective Concentration (HIV-1/Pyr (181-Cys)): 2.30 µg/mL
- 50% Effective Concentration [2]: 0.100 µg/mL
- 50% Effective Concentration [3]: 1.5 µg/mL
- 50% Effective Concentration [4]: 0.030 µg/mL
- EC50 [5]: 0.24 µg/mL (≈ 0.901 µM)
- EC50 (HIV-1/V(0.5) 103-Asn): ≥ 5 µg/mL
- HIV-1-induced cytopathicity in cell culture (HIV-1(IIIB); 0.1 μg/ml, day 4 post infection): 37.5 percentage of control
- HIV-1-induced cytopathicity in cell culture (HIV-1(IIIB); 0.1 μg/ml, day 8 post infection): 87.5 percentage of control
- HIV-1-induced cytopathicity in cell culture (HIV-1(IIIB); 0.1 μg/ml, day 11 post infection): 100 percentage of control
- HIV-1-induced cytopathicity in cell culture (HIV-1(IIIB); 0.1 μg/ml, day 14 post infection): 100 percentage of control
- HIV-1-induced cytopathicity in cell culture (HIV-1(IIIB); 0.1 μg/ml, day 17 post infection): 100 percentage of control
- HIV-1-induced cytopathicity in cell culture (HIV-1(IIIB); 0.1 μg/ml, day 21 post infection): 100 percentage of control
- HIV-1-induced cytopathicity in cell culture (HIV-1(IIIB); 0.1 μg/ml, day 25 post infection): 100 percentage of control
- HIV-1-induced cytopathicity in cell culture (HIV-1(IIIB); 0.1 μg/ml, day 28 post infection): 100 percentage of control
- HIV-1-induced cytopathicity in cell culture (HIV-1(IIIB); 0.1 μg/ml, day 32 post infection): 100 percentage of control
- HIV-1-induced cytopathicity in cell culture (HIV-1(IIIB); 0.1 μg/ml, day 35 post infection): 100 percentage of control
- HIV-1-induced cytopathicity in cell culture (HIV-1(IIIB); 0.1 μg/ml, day 39 post infection, compound absent from day 35): 100 percentage of control
- HIV-1-induced cytopathicity in cell culture (HIV-1(IIIB); 0.1 μg/ml, day 42 post infection, compound absent from day 35): 100 percentage of control
- HIV-1-induced cytopathicity in cell culture (HIV-1(IIIB); 0.1 μg/ml, day 46 post infection, compound absent from day 35): 100 percentage of control
- HIV-1-induced cytopathicity in cell culture (HIV-1(IIIB); 0.1 μg/ml, day 49 post infection, compound absent from day 35): 100 percentage of control
- HIV-1-induced cytopathicity in cell culture (HIV-1(IIIB); 0.1 μg/ml, day 53 post infection, compound absent from day 35): 100 percentage of control
- HIV-1-induced cytopathicity in cell culture (HIV-1(IIIB); 0.5 μg/ml, day 4 post infection): 6.25 percentage of control
- HIV-1-induced cytopathicity in cell culture (HIV-1(IIIB); 0.5 μg/ml, day 8 post infection): 25 percentage of control
- HIV-1-induced cytopathicity in cell culture (HIV-1(IIIB); 0.5 μg/ml, day 11 post infection): 50 percentage of control
- HIV-1-induced cytopathicity in cell culture (HIV-1(IIIB); 0.5 μg/ml, day 14 post infection): 100 percentage of control
- HIV-1-induced cytopathicity in cell culture (HIV-1(IIIB); 0.5 μg/ml, day 17 post infection): 100 percentage of control
- HIV-1-induced cytopathicity in cell culture (HIV-1(IIIB); 0.5 μg/ml, day 21 post infection): 100 percentage of control
- HIV-1-induced cytopathicity in cell culture (HIV-1(IIIB); 0.5 μg/ml, day 25 post infection): 100 percentage of control
- HIV-1-induced cytopathicity in cell culture (HIV-1(IIIB); 0.5 μg/ml, day 28 post infection): 100 percentage of control
- HIV-1-induced cytopathicity in cell culture (HIV-1(IIIB); 0.5 μg/ml, day 32 post infection): 100 percentage of control
- HIV-1-induced cytopathicity in cell culture (HIV-1(IIIB); 0.5 μg/ml, day 35 post infection): 100 percentage of control
- HIV-1-induced cytopathicity in cell culture (HIV-1(IIIB); 0.5 μg/ml, day 39 post infection, compound absent from day 35): 100 percentage of control
- HIV-1-induced cytopathicity in cell culture (HIV-1(IIIB); 0.5 μg/ml, day 42 post infection, compound absent from day 35): 100 percentage of control
- HIV-1-induced cytopathicity in cell culture (HIV-1(IIIB); 0.5 μg/ml, day 46 post infection, compound absent from day 35): 100 percentage of control
- HIV-1-induced cytopathicity in cell culture (HIV-1(IIIB); 0.5 μg/ml, day 49 post infection, compound absent from day 35): 100 percentage of control
- HIV-1-induced cytopathicity in cell culture (HIV-1(IIIB); 0.5 μg/ml, day 53 post infection, compound absent from day 35): 100 percentage of control
- HIV-1-induced cytopathicity in cell culture (HIV-1(IIIB); 2.5 μg/ml, day 4 post infection): 0 percentage of control
- HIV-1-induced cytopathicity in cell culture (HIV-1(IIIB); 2.5 μg/ml, day 8 post infection): 0 percentage of control
- HIV-1-induced cytopathicity in cell culture (HIV-1(IIIB); 2.5 μg/ml, day 11 post infection): 6.25 percentage of control
- HIV-1-induced cytopathicity in cell culture (HIV-1(IIIB); 2.5 μg/ml, day 14 post infection): 25 percentage of control
- HIV-1-induced cytopathicity in cell culture (HIV-1(IIIB); 2.5 μg/ml, day 17 post infection): 62.5 percentage of control
- HIV-1-induced cytopathicity in cell culture (HIV-1(IIIB); 2.5 μg/ml, day 21 post infection): 100 percentage of control
- HIV-1-induced cytopathicity in cell culture (HIV-1(IIIB); 2.5 μg/ml, day 25 post infection): 100 percentage of control
- HIV-1-induced cytopathicity in cell culture (HIV-1(IIIB); 2.5 μg/ml, day 28 post infection): 100 percentage of control
- HIV-1-induced cytopathicity in cell culture (HIV-1(IIIB); 2.5 μg/ml, day 32 post infection): 100 percentage of control
- HIV-1-induced cytopathicity in cell culture (HIV-1(IIIB); 2.5 μg/ml, day 35 post infection): 100 percentage of control
- HIV-1-induced cytopathicity in cell culture (HIV-1(IIIB); 2.5 μg/ml, day 39 post infection, compound absent from day 35): 100 percentage of control
- HIV-1-induced cytopathicity in cell culture (HIV-1(IIIB); 2.5 μg/ml, day 42 post infection, compound absent from day 35): 100 percentage of control
- HIV-1-induced cytopathicity in cell culture (HIV-1(IIIB); 2.5 μg/ml, day 46 post infection, compound absent from day 35): 100 percentage of control
- HIV-1-induced cytopathicity in cell culture (HIV-1(IIIB); 2.5 μg/ml, day 49 post infection, compound absent from day 35): 100 percentage of control
- HIV-1-induced cytopathicity in cell culture (HIV-1(IIIB); 2.5 μg/ml, day 53 post infection, compound absent from day 35): 100 percentage of control

SMILES: CCc1cc(NCc2nc3c(Cl)ccc(Cl)c3o2)c(O)nc1C [Pyridinone L-697,661, 3-{[(4,7-dichloro-1,3-benzoxazol-2-yl)methyl]amino}-5-ethyl-6-methylpyridin-2(1H)-one, reference compound]
- EC50 (HIV-1(IIIB) (WT); [6]): 0.007 µg/mL (≈ 0.0199 µM)
- EC50 (HIV-1(IIIB) (WT); [7]): 0.007 µg/mL (≈ 0.0199 µM)
- EC50 (HIV-1/B 101Glu; [8]): 0.035 µg/mL (≈ 0.0994 µM)
- EC50 (HIV-1/I(0.1) 103-Asn; [8]): 0.3 µg/mL (≈ 0.852 µM)
- EC50 (HIV-1/II(0.1) 100-Ile; [8]): 0.63 µg/mL (≈ 1.79 µM)
- EC50 (HIV-1/III(0.1) 103-Asn; [8]): 0.03 µg/mL (≈ 0.0852 µM)
- EC50 (HIV-1/IV(0.1) 103-Thr; [8]): 0.5 µg/mL (≈ 1.42 µM)
- EC50 (HIV-1/Nev (106-Ala); [9]): 0.24 µg/mL (≈ 0.681 µM)
- EC50 (HIV-1/Pyr (181-Cys); [9]): 3.67 µg/mL (≈ 10.4 µM)
- EC50 [2, 9]: 0.18 µg/mL (≈ 0.511 µM)
- EC50 [3, 9]: 0.5 µg/mL (≈ 1.42 µM)
- EC50 [4, 9]: 0.17 µg/mL (≈ 0.483 µM)
- EC50 [5, 8]: 0.08 µg/mL (≈ 0.227 µM)
- EC50 (HIV-1/V(0.5) 103-Asn; [8]): 0.55 µg/mL (≈ 1.56 µM)
- IC50 (HIV-1 RT (WT)): 1080 nM
